Test results: PMC7179450, “Primary Human Hepatocytes, But not HepG2 or Balb/c 3T3 Cells, Efficiently Metabolize Salinomycin and Are Resistant to Its Cytotoxicity” (Molecules, 2020)

Key:
Balb/c 3T3 fibroblasts = experiment: Biotransformation of SAL and metabolites in Balb/c 3T3 fibroblasts (LC-MS/MS); type: in vitro ADME, mouse; details: 24 h (Figure 2B)
Protocol: The HepG2 cell line was purchased from the American Type Culture Collection (ATCC® HB-8065™). The cells were cultured in Minimum Essential Medium Eagle (MEME) (Sigma–Aldrich Co. (St. Louis, MO, USA)). Normal murine embryonic fibroblasts, Balb/c 3T3 clone A31 cell line (gift from Department of Swine Diseases of the National Veterinary Research Institute in Pulawy) was cultured in Dulbecco’s Modified Eagle’s Medium (DMEM) (Invitrogen Corporations (Paisley, UK)). The media were supplemented with 10% BCS (Balb/c 3T3), 10% FBS (HepG2), 1% L-glutamine, and 1% antibiotic solution. The cells were maintained in 75 cm^2 cell culture flasks in humidified incubator at 37 °C, in an atmosphere of 5% CO2. […] The initial cell viability was determined with the trypan blue exclusion test. […]
The medium samples from microplate wells were collected for identifying SAL metabolites and normalized to a cell number. An aliquot of 200 µL of each sample was measured to Eppendorf tube. […] The dry residue was reconstituted in 50% acetonitrile and analyzed with LC-MS/MS. […]
SAL (m/z 773.4 to m/z 431.3) was monitored in multiple reaction monitoring (MRM) modes. […]
The signals for further analysis were selected with the LightSight 2.3 software. […] These MRM transitions (with 20 chromatographic peaks) were then quantified with Multiquant 2.1. software. Quantitative analysis was performed for SAL. […]

PHH = experiment: Cytotoxicity battery (MTT, NRU, TPC, LDH) in PHH; type: cell-based, human; details: well tolerated at lower concentrations
Protocol: The concentration ranges of the drugs were chosen according to their solubility and their plasma level. Each drug was dissolved in DMSO. The final concentration of DMSO was 0.1% or 0.2% in the medium for both samples and corresponding controls. […] All drug solutions in medium were freshly prepared and protected from light. SAL was tested in seven concentrations from 0.39 to 25 µg/mL. Tiamulin was added in two concentrations (1 and 10 µg/mL) or just one concentration (1 µg/mL) to cell lines or human hepatocytes, respectively. Prednisolone was tested in one concentration—1 µg/mL independent of the type of cells. […] The cytotoxicity was assessed after 24 and 48 h of exposure of cell lines or after 12 and 24 h exposure of PHH. […]
The metabolic activity of living cells was assessed by measuring the activity of dehydrogenases. […] The plate was shaken for 15 min at room temperature and transferred to a microplate reader to measure the absorbance at 570 nm, using a blank as a reference. Cytotoxicity was expressed as a percentage of the negative control (0.1% or 0.2% DMSO).
The assay, based on staining of living cells by neutral red (NR), was performed according to the protocol described by Borenfreund and Puerner. […] After 10 min of shaking, the absorbance of the dissolved NR was measured at 540 nm using a blank as a reference. […]

Structure (SMILES): CC[C@@H](C(=O)[C@@H](C)[C@@H](O)[C@H](C)[C@@H]1O[C@@H]([C@@H](CC)C(=O)O)CC[C@@H]1C)[C@H]1O[C@]2(C=C[C@@H](O)[C@]3(CC[C@@](C)([C@H]4CC[C@](O)(CC)[C@H](C)O4)O3)O2)[C@H](C)C[C@@H]1C [SAL, salinomycin]
- biotransformation of SAL (Balb/c 3T3 fibroblasts): no biotransformation
- concentrations exerting toxic effects (PHH): > 10000 ng/mL
